In ChEMBL document CHEMBL1144577, “1,5-Biaryl pyrrole derivatives as EP1 receptor antagonists. Structure-activity relationships of 6-substituted and 5,6-disubstituted benzoic acid derivatives” (Bioorg Med Chem Lett, 2007):

Experiments:
[1] = target: T1, Prostaglandin E2 receptor EP1 subtype (Homo sapiens, UniProt P34995); assay: Displacement of [3H]PGE2 from human recombinant EP1 receptor expressed in CHOK1 cell membrane; assay type: cell membranes, CHO-K1
T1 sequence (P34995 whole entry): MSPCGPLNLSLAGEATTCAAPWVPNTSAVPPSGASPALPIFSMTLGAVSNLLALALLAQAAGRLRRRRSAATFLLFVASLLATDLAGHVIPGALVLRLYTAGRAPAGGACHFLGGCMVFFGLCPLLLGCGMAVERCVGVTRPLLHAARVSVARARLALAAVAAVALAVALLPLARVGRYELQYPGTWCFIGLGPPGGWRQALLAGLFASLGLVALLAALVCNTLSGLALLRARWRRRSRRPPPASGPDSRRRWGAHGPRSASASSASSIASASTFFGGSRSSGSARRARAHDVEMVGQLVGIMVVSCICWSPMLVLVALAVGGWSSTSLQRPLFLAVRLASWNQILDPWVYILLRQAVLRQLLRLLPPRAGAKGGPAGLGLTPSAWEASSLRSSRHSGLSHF

[2] = Cmax in rat at 3 mg/kg, po; assay type: ADME, organism-based; parameters: dose 3 mg/kg, route oral; conditions: in vivo
[3] = test system: Rattus norvegicus; assay: Normalized AUC (0 to t) in rat at 3 mg/kg, po; assay type: ADME, organism-based; parameters: dose 3 mg/kg, route oral; conditions: in vivo
[4] = Tmax in rat at 3 mg/kg, po; assay type: ADME, organism-based; parameters: dose 3 mg/kg, route oral; conditions: in vivo
[5] = test system: Rattus norvegicus; assay: Reversal of hypersensitivity in FCA rat model of inflammatory pain at 5 mg/kg, po; assay type: functional

Structure (SMILES) | IC50 [1] | also measured
Cc1ccc(OCc2ccc(F)cc2)c(-c2ccc(C)n2-c2cc(C(=O)O)c3ccccc3c2)c1 | 79.4 nM | 
Cc1ccc(OCc2ccc(F)cc2)c(-c2ccc(C)n2-c2ccc(F)c(C(=O)O)c2)c1 | 15.8 nM | 
Cc1ccc(-c2cc(Br)ccc2OCc2ccccc2)n1-c1cc(C(=O)O)c2ccccc2c1 | 12.6 nM | 
Cc1ccc(-c2cc(Cl)ccc2OCc2ccccc2)n1-c1cc(C(=O)O)c2ccccc2c1 | 6.31 nM | Cmax [2]: 220 nM; AUC/dose [3]: 9 kg·min/L; Tmax [4]: 240 min
Cc1ccc(-c2cc(F)ccc2OCc2ccc(F)cc2)n1-c1ccc(F)c(C(=O)O)c1 | 12.6 nM | 
Cc1ccc(-c2cc(C(F)(F)F)ccc2OCc2ccc(F)cc2)n1-c1ccc(F)c(C(=O)O)c1 | 7.94 nM | 

Stronger by IC50 [1], values ahead:

IC50 [1] | Structure (SMILES) | also measured
5.01 nM | Cc1ccc(-c2cc(Br)ccc2OCc2ccccc2)n1-c1ccc(OC(F)F)c(C(=O)O)c1 | 
5.01 nM | Cc1ccc(-c2cc(Br)ccc2OCc2ccc(F)cc2)n1-c1cc(C(=O)O)c2ccccc2c1 | Cmax [2]: 520 nM; AUC/dose [3]: 9 kg·min/L; Tmax [4]: 30 min
3.98 nM | Cc1c(N)cc(-n2c(C)ccc2-c2cc(C(F)(F)F)ccc2OCc2ccc(F)cc2)cc1C(=O)O | 
2.51 nM | Cc1ccc(-n2c(C)ccc2-c2cc(Cl)ccc2OCc2ccc(F)cc2F)cc1C(=O)O | 
2 nM | Cc1c(N)cc(-n2c(C)ccc2-c2cc(Cl)ccc2OCc2ccccc2)cc1C(=O)O | Cmax [2]: 2940 nM; AUC/dose [3]: 39 kg·min/L; Tmax [4]: 30 min; Activity [5]: 35%
2 nM | Cc1ccc(-c2cc(Br)ccc2OCc2ccc(F)cc2F)n1-c1ccc(O)c(C(=O)O)c1 | 
2 nM | Cc1ccc(-c2cc(Br)ccc2OCc2ccc(F)cc2)n1-c1ccc(OC(F)F)c(C(=O)O)c1 | 
1.26 nM | Cc1ccc(-c2cc(Cl)ccc2OCc2ccccc2)n1-c1cc(C(=O)O)c2cc[nH]c2c1 | 
1.26 nM | Cc1ccc(-c2cc(Br)ccc2OCc2ccc(F)cc2)n1-c1ccc(F)c(C(=O)O)c1 | 
